{
  "source": "patent US20180188224A1",
  "about": "“METHOD FOR CONSTRUCTING A SENSORY SPACE” (CENTRE SCIENTIFIQUE ET TECHNIQUE DU BATIMENT (CSTB), priority 2015, published 2018)",
  "system": "four non-smoking volunteers (2 men and 2 women)",
  "assay": "Taste identification questionnaire, trained panel (count of 6 repetitions per subject in which the stimulus was given each taste label; level of recognition %)",
  "format": "in vivo, human",
  "conditions": "for Level of Recognition %: Neutral / Level of Recognition %: Salty / Level of Recognition %: Sour / Level of Recognition %: Sweet: four subjects",
  "procedure": "In this test, four non-smoking volunteers (2 men and 2 women) were chosen from 12 people for their performance in taste recognition. Their mean age was 32 years, ranging from 24 to 40 years. […] These four people were trained for several months to recognize and detect the four basic tastes, and also regarding the procedures of sensory and physiological analysis.\nThe four basic tastes (sweet, salty, sour and bitter) were used. The solutions were prepared with citric acid for the sour taste, caffeine for the bitter taste, sodium chloride for the salty taste and sucrose for the sweet taste (all purchased from Sigma Aldrich, France) in Evian water. Evian water was also used as control and blank. Each taste was prepared with the four concentrations mentioned in table 1.\nThe amount of solution to be tested was standardized at 10 ml. In order to impregnate the whole of the oral cavity, the subjects kept the solution in their mouth for 5 s before swallowing it.\nThe sessions were individual and the subjects were asked not to eat or drink anything for at least 1 h before the test. They arrived 15 min before the start of the session in order to acclimatize to the environmental conditions, in particular the temperature of the room (kept constant at 23° C.) and to be resting seated on a comfortable chair. The 16 solutions for testing and two additional samples of water containing solely Evian water, added to the references, were presented monadically following a test order determined from a “balanced incomplete block design”. During a session, 9 samples out of 18 were presented to minimize sensory fatigue. In addition, a sample of Evian was always tested as a “blank” sample in order to avoid the first-order effect (Lawless, H. T. & Heymann, H., 2010, Sensory evaluation of food: Principles and practices. Springer, New York) and was excluded from the analysis. A light signal was sent to give the instruction to test the sample. When the disturbance to the nervous system returned to its baseline level (after approximately 1 min), a second light signal indicated to the subjects that they should complete a questionnaire regarding the stimulus tested previously. The first part of the questionnaire was linked to the identification of the taste (i.e. determining the quality of the taste); the subjects had to choose between five labels: sweet, salty, sour, bitter or neutral. They then had to assign a taste intensity score on an 11-point scale (from 0 “not intense” (i.e. taste of Evian only) to 10 “very intense”) and finally to give a hedonic score on an 11-point scale (from 0 “very unpleasant” to 10 “very pleasant”, 5 being “neutral”).\nThis procedure was repeated for each of the 9 stimuli. A session lasted approximately 45 min including a debriefing at the end of the test to ensure understanding of the sense of the signal variations. The experiment was repeated 12 times per subject, meaning that the data are composed of 6 data sets per subject and per product and 12 data sets for the Evian product per subject. Thus, the database consists of 432 samples.",
  "note": "Values joined by “and” are separate entries in the source; they are usually repeats but may differ in a detail not shown here. Identical values can stand only once.",
  "data": [
    {"smiles": "[Cl-].[Na+]", "note": "[NaCl, sodium chloride]", "values": [
      {"measurement": "Individual recognition score: Neutral", "setting": "Subject 1, dilution 1", "result": 0},
      {"measurement": "Individual recognition score: Salty", "setting": "Subject 1, dilution 1", "result": 6},
      {"measurement": "Individual recognition score: Sour", "setting": "Subject 1, dilution 1", "result": 0},
      {"measurement": "Individual recognition score: Sweet", "setting": "Subject 1, dilution 1", "result": 0},
      {"measurement": "Individual recognition score: Neutral", "setting": "Subject 1, dilution 2", "result": 0},
      {"measurement": "Individual recognition score: Salty", "setting": "Subject 1, dilution 2", "result": 6},
      {"measurement": "Individual recognition score: Sour", "setting": "Subject 1, dilution 2", "result": 0},
      {"measurement": "Individual recognition score: Sweet", "setting": "Subject 1, dilution 2", "result": 0},
      {"measurement": "Individual recognition score: Neutral", "setting": "Subject 1, dilution 3", "result": 0},
      {"measurement": "Individual recognition score: Salty", "setting": "Subject 1, dilution 3", "result": 6},
      {"measurement": "Individual recognition score: Sour", "setting": "Subject 1, dilution 3", "result": 0},
      {"measurement": "Individual recognition score: Sweet", "setting": "Subject 1, dilution 3", "result": 0},
      {"measurement": "Individual recognition score: Neutral", "setting": "Subject 1, dilution 4", "result": 0},
      {"measurement": "Individual recognition score: Salty", "setting": "Subject 1, dilution 4", "result": 6},
      {"measurement": "Individual recognition score: Sour", "setting": "Subject 1, dilution 4", "result": 0},
      {"measurement": "Individual recognition score: Sweet", "setting": "Subject 1, dilution 4", "result": 0},
      {"measurement": "Individual recognition score: Neutral", "setting": "Subject 2, dilution 1", "result": 0},
      {"measurement": "Individual recognition score: Salty", "setting": "Subject 2, dilution 1", "result": 6},
      {"measurement": "Individual recognition score: Sour", "setting": "Subject 2, dilution 1", "result": 0},
      {"measurement": "Individual recognition score: Sweet", "setting": "Subject 2, dilution 1", "result": 0},
      {"measurement": "Individual recognition score: Neutral", "setting": "Subject 2, dilution 2", "result": 0},
      {"measurement": "Individual recognition score: Salty", "setting": "Subject 2, dilution 2", "result": 6},
      {"measurement": "Individual recognition score: Sour", "setting": "Subject 2, dilution 2", "result": 0},
      {"measurement": "Individual recognition score: Sweet", "setting": "Subject 2, dilution 2", "result": 0},
      {"measurement": "Individual recognition score: Neutral", "setting": "Subject 2, dilution 3", "result": 0},
      {"measurement": "Individual recognition score: Salty", "setting": "Subject 2, dilution 3", "result": 6},
      {"measurement": "Individual recognition score: Sour", "setting": "Subject 2, dilution 3", "result": 0},
      {"measurement": "Individual recognition score: Sweet", "setting": "Subject 2, dilution 3", "result": 0},
      {"measurement": "Individual recognition score: Neutral", "setting": "Subject 2, dilution 4", "result": 0},
      {"measurement": "Individual recognition score: Salty", "setting": "Subject 2, dilution 4", "result": 6},
      {"measurement": "Individual recognition score: Sour", "setting": "Subject 2, dilution 4", "result": 0},
      {"measurement": "Individual recognition score: Sweet", "setting": "Subject 2, dilution 4", "result": 0},
      {"measurement": "Individual recognition score: Neutral", "setting": "Subject 3, dilution 1", "result": 0},
      {"measurement": "Individual recognition score: Salty", "setting": "Subject 3, dilution 1", "result": 6},
      {"measurement": "Individual recognition score: Sour", "setting": "Subject 3, dilution 1", "result": 0},
      {"measurement": "Individual recognition score: Sweet", "setting": "Subject 3, dilution 1", "result": 0},
      {"measurement": "Individual recognition score: Neutral", "setting": "Subject 3, dilution 2", "result": 0},
      {"measurement": "Individual recognition score: Salty", "setting": "Subject 3, dilution 2", "result": 6},
      {"measurement": "Individual recognition score: Sour", "setting": "Subject 3, dilution 2", "result": 0},
      {"measurement": "Individual recognition score: Sweet", "setting": "Subject 3, dilution 2", "result": 0},
      {"measurement": "Individual recognition score: Neutral", "setting": "Subject 3, dilution 3", "result": 0},
      {"measurement": "Individual recognition score: Salty", "setting": "Subject 3, dilution 3", "result": 6},
      {"measurement": "Individual recognition score: Sour", "setting": "Subject 3, dilution 3", "result": 0},
      {"measurement": "Individual recognition score: Sweet", "setting": "Subject 3, dilution 3", "result": 0},
      {"measurement": "Individual recognition score: Neutral", "setting": "Subject 3, dilution 4", "result": 0},
      {"measurement": "Individual recognition score: Salty", "setting": "Subject 3, dilution 4", "result": 6},
      {"measurement": "Individual recognition score: Sour", "setting": "Subject 3, dilution 4", "result": 0},
      {"measurement": "Individual recognition score: Sweet", "setting": "Subject 3, dilution 4", "result": 0},
      {"measurement": "Individual recognition score: Neutral", "setting": "Subject 4, dilution 1", "result": 0},
      {"measurement": "Individual recognition score: Salty", "setting": "Subject 4, dilution 1", "result": 5},
      {"measurement": "Individual recognition score: Sour", "setting": "Subject 4, dilution 1", "result": 0},
      {"measurement": "Individual recognition score: Sweet", "setting": "Subject 4, dilution 1", "result": 0},
      {"measurement": "Individual recognition score: Neutral", "setting": "Subject 4, dilution 2", "result": 0},
      {"measurement": "Individual recognition score: Salty", "setting": "Subject 4, dilution 2", "result": 6},
      {"measurement": "Individual recognition score: Sour", "setting": "Subject 4, dilution 2", "result": 0},
      {"measurement": "Individual recognition score: Sweet", "setting": "Subject 4, dilution 2", "result": 0},
      {"measurement": "Individual recognition score: Neutral", "setting": "Subject 4, dilution 3", "result": 0},
      {"measurement": "Individual recognition score: Salty", "setting": "Subject 4, dilution 3", "result": 6},
      {"measurement": "Individual recognition score: Sour", "setting": "Subject 4, dilution 3", "result": 0},
      {"measurement": "Individual recognition score: Sweet", "setting": "Subject 4, dilution 3", "result": 0},
      {"measurement": "Individual recognition score: Neutral", "setting": "Subject 4, dilution 4", "result": 0},
      {"measurement": "Individual recognition score: Salty", "setting": "Subject 4, dilution 4", "result": 6},
      {"measurement": "Individual recognition score: Sour", "setting": "Subject 4, dilution 4", "result": 0},
      {"measurement": "Individual recognition score: Sweet", "setting": "Subject 4, dilution 4", "result": 0},
      {"measurement": "Level of Recognition %: Neutral", "setting": "dilution 1", "result": 0, "unit": "%"},
      {"measurement": "Level of Recognition %: Salty", "setting": "dilution 1", "result": 96, "unit": "%"},
      {"measurement": "Level of Recognition %: Sour", "setting": "dilution 1", "result": 0, "unit": "%"},
      {"measurement": "Level of Recognition %: Sweet", "setting": "dilution 1", "result": 0, "unit": "%"},
      {"measurement": "Level of Recognition %: Neutral", "setting": "dilution 2", "result": 0, "unit": "%"},
      {"measurement": "Level of Recognition %: Salty", "setting": "dilution 2", "result": 100, "unit": "%"},
      {"measurement": "Level of Recognition %: Sour", "setting": "dilution 2", "result": 0, "unit": "%"},
      {"measurement": "Level of Recognition %: Sweet", "setting": "dilution 2", "result": 0, "unit": "%"},
      {"measurement": "Level of Recognition %: Neutral", "setting": "dilution 3", "result": 0, "unit": "%"},
      {"measurement": "Level of Recognition %: Salty", "setting": "dilution 3", "result": 100, "unit": "%"},
      {"measurement": "Level of Recognition %: Sour", "setting": "dilution 3", "result": 0, "unit": "%"},
      {"measurement": "Level of Recognition %: Sweet", "setting": "dilution 3", "result": 0, "unit": "%"},
      {"measurement": "Level of Recognition %: Neutral", "setting": "dilution 4", "result": 0, "unit": "%"},
      {"measurement": "Level of Recognition %: Salty", "setting": "dilution 4", "result": 100, "unit": "%"},
      {"measurement": "Level of Recognition %: Sour", "setting": "dilution 4", "result": 0, "unit": "%"},
      {"measurement": "Level of Recognition %: Sweet", "setting": "dilution 4", "result": 0, "unit": "%"},
      {"measurement": "Individual recognition score: Bitter", "setting": "human, in vivo", "result": "0 (15×) and 1"},
      {"measurement": "Level of Recognition %: Bitter", "setting": "human, in vivo", "result": "4% and 0%"}
    ]}
  ]
}
